{"source": "paper PMC5957517", "about": "(Biochimica et biophysica acta, 2018)", "origin": "cited, not measured here", "tested_on": "MRSA infections", "details": "ref [43],[44]"}
{"compound": "CN[C@H](CC(C)C)C(=O)N[C@H]1C(=O)N[C@@H](CC(N)=O)C(=O)N[C@H]2C(=O)N[C@H]3C(=O)N[C@H](C(=O)N[C@H](C(=O)O)c4cc(O)cc(O)c4-c4cc3ccc4O)[C@H](O)c3ccc(c(Cl)c3)Oc3cc2cc(c3O[C@@H]2O[C@H](CO)[C@@H](O)[C@H](O)[C@H]2O[C@H]2C[C@](C)(N)[C@H](O)[C@H](C)O2)Oc2ccc(cc2Cl)[C@H]1O", "note": "[vancomycin]", "values": [{"measurement": "reported clinical efficacy", "value": "35-57%"}]}
